# Measurements from patent US9833497B2, “Human originated EGF domain proteins and use of the same” (CHENGDU SOURCEBIO LIMITED-LIABILITY COMPANY, priority 2013, dated 2017).
# Tests used:
# Type in all cases: cell-based
# [1] = system: Klebsiella pneumonia; experiment: MIC against Gram-negative bacteria: Klebsiella pneumonia
# Experimental: (§1) 1. Gram-negative bacteria, such as E. coli BL21, Pseudomonas aeruginosa, Klebsiella pneumonia, Enterobacter cloacae, Aeromonas hydrophila, Citrobacter diversus, Moraxella catarrhalis, Proteus mirabilis, Proteus vulgaris, Serratia marcescens, etc were streaked on solid LB medium and cultured respectively. Then, typical clones were picked, inoculated into common liquid LB medium respectively, and cultured at 37° C. with shaking at 185 rpm until the McFarland specific turbidity was 0.5. The bacterial culture of each of Gram-negative bacteria was centrifuged at 4000×g for 3 min, the supernatant was discarded, and the thalli were resuspended with fresh LB medium.
# (§2) 2. The above-mentioned bacterial suspensions were diluted and inoculated into 96-well plates with the final concentration of the bacterial suspension being 5×10^5 CFU/mL per well.
# (§3) 3. Each of the purified human-originated EGF domain proteins (PRT1 to PRT1498 in Table 1) was added to each of the above wells and subjected to two-fold serial dilution in concentration. Three parallel wells were set up for each concentration in the gradient.
# (§4) 4. The above-mentioned 96-well plates were placed and cultured at 37° C. in shaking incubator shaking at 175 rpm. […] The minimal inhibitory concentration MIC is defined as the lowest concentration of the recombinant protein at which there is no growth of the bacteria.
# [2] = system: Aeromonas hydrophila; experiment: MIC against Gram-negative bacteria: Aeromonas hydrophila
# Experimental: as §1, §2, §3, §4
# [3] = system: Proteus vulgaris; experiment: MIC against Gram-negative bacteria: Proteus vulgaris
# Experimental: as §1, §2, §3, §4
# [4] = system: Pseudomonas aeruginosa; experiment: MIC against Gram-negative bacteria: Pseudomonas aeruginosa
# Experimental: as §1, §2, §3, §4
# [5] = system: E. coli BL21; experiment: MIC against Gram-negative bacteria: E. coli BL21
# Experimental: as §1, §2, §3, §4
# [6] = system: Proteus mirabilis; experiment: MIC against Gram-negative bacteria: Proteus mirabilis
# Experimental: as §1, §2, §3, §4
# [7] = system: Moraxella catarrhalis; experiment: MIC against Gram-negative bacteria: Moraxella catarrhalis
# Experimental: as §1, §2, §3, §4
# [8] = system: Citrobacter diversus; experiment: MIC against Gram-negative bacteria: Citrobacter diversus
# Experimental: as §1, §2, §3, §4
# [9] = system: E. coli DH5α; experiment: Antibacterial activity: MIC and growth curve against E. coli DH5α in 96-well plate; settings: minimal inhibitory concentration against E. coli DH5α; 96-well plate, 5×10^5 CFU/mL, 37° C., judged after 8 h
# Experimental: 1. E. coli DH5α was exemplified. E. coli DH5α was streaked and cultured on LB solid medium. Then, a typical clone was picked and inoculated into common LB liquid medium, cultured at 37° C. with shaking at 185 rpm until the logarithmic growth phase was reached (OD600 of about 0.5). The bacterial culture was centrifuged at 4000×g for 3 min, the supernatant was discarded, and the thalli were resuspended with fresh LB medium.
# 2. The above-mentioned bacterial suspension was diluted and inoculated into a 96-well plate with the total volume of 100 μL per well and a bacterial count of 5×10^5 CFU/mL.
# 3. The recombinant protein hF VII-EGF1 was added to the above-mentioned wells with the final protein concentration in the well of the highest protein concentration being 50 μg/mL. Basing on this final concentration, a two-fold serial dilution was performed till a protein concentration gradient consisting of 50, 25, and 12.5 μg/mL was set up. Three parallel wells were set up for each concentration in the gradient.
# 4. The above-mentioned 96-well plate was placed and cultured at 37° C. in shaking incubator shaking at 175 rpm. Samples were taken every 30 min, the absorbance values were determined at 600 nm wavelength under a ultra violet spectrophotometer, and an inhibition curve was plotted. […] The minimal inhibitory concentration MIC is defined as the lowest concentration of the recombinant protein at which there is no growth of the bacteria.
# According to the experimental procedures in Example 14, the minimal inhibitory concentrations (MIC, μg/mL) of the other human-originated EGF domain proteins (PRT2 to PRT1498 in Table 1) for E. coli DH5α were determined.
# [10] = system: Serratia marcescens; experiment: MIC against Gram-negative bacteria: Serratia marcescens
# Experimental: as §1, §2, §3, §4
# [11] = system: Enterobacter cloacae; experiment: MIC against Gram-negative bacteria: Enterobacter cloacae
# Experimental: as §1, §2, §3, §4
# [12] = 10 h cultivation at 37° C., 5×10^5 CFU/mL, two-fold serial dilution
# [13] = Klebsiella pneumonia, 96-well plate, 5×10^5 CFU/mL, 37° C., 10 h
# [14] = Aeromonas hydrophila, 96-well plate, 5×10^5 CFU/mL, 37° C., 10 h
# [15] = Proteus vulgaris, 96-well plate, 5×10^5 CFU/mL, 37° C., 10 h
# [16] = Pseudomonas aeruginosa, 96-well plate, 5×10^5 CFU/mL, 37° C., 10 h
# [17] = E. coli BL21, 96-well plate, 5×10^5 CFU/mL, 37° C., 10 h
# [18] = Proteus mirabilis, 96-well plate, 5×10^5 CFU/mL, 37° C., 10 h
# [19] = Moraxella catarrhalis, 96-well plate, 5×10^5 CFU/mL, 37° C., 10 h
# [20] = Citrobacter diversus, 96-well plate, 5×10^5 CFU/mL, 37° C., 10 h
# [21] = Serratia marcescens, 96-well plate, 5×10^5 CFU/mL, 37° C., 10 h
# [22] = Enterobacter cloacae, 96-well plate, 5×10^5 CFU/mL, 37° C., 10 h
substance,measurement,setting,value
PRT1079 (DQCSLNNGGCSHNCSVAPGEGIVCSCPLGMELGPDNHTCQ; listed as Homo sapiens),MIC K. pneumonia,[1]; [12],12.5 µg/mL
same,MIC A. hydrophila,[2]; [12],12.5 µg/mL
same,MIC P. vulgaris,[3]; [12],50 µg/mL
same,MIC P. aeruginosa,[4]; [12],50 µg/mL
same,MIC E. coli BL21,[5]; [12],12.5 µg/mL
same,MIC P. mirabilis,[6]; [12],50 µg/mL
same,MIC M. catarrhalis,[7]; [12],12.5 µg/mL
same,MIC C. diversus,[8]; [12],50 µg/mL
same,MIC,[9],50 µg/mL
same,MIC S. marcescens,[10]; [12],12.5 µg/mL
same,MIC E. cloacae,[11]; [12],50 µg/mL
PRT1033 (LYVPCAPSPCVNGGTCRQTGDFTFECNCLPETVRRGTE; listed as Homo sapiens),MIC,"[1]; K. pneumonia, 10 h cultivation at 37° C.",25 µg/mL
same,MIC,"[2]; A. hydrophila, 10 h cultivation at 37° C.",12.5 µg/mL
same,MIC,"[3]; P. vulgaris, 10 h cultivation at 37° C.",25 µg/mL
same,MIC,"[4]; P. aeruginosa, 10 h cultivation at 37° C.",50 µg/mL
same,MIC,"[5]; E. coli BL21, 10 h cultivation at 37° C.",12.5 µg/mL
same,MIC,"[6]; P. mirabilis, 10 h cultivation at 37° C.",50 µg/mL
same,MIC,"[7]; M. catarrhalis, 10 h cultivation at 37° C.",100 µg/mL
same,MIC,"[8]; C. diversus, 10 h cultivation at 37° C.",50 µg/mL
same,MIC,[9],50 µg/mL
same,MIC,"[10]; S. marcescens, 10 h cultivation at 37° C.",50 µg/mL
same,MIC,"[11]; E. cloacae, 10 h cultivation at 37° C.",50 µg/mL
PRT135 (PGHCSSYGSICHNGGKCVEKHNGYLCDCTNSPYEGPFCK; listed as Homo sapiens),MIC (μg/mL) K. pneumonia,[1]; [13],12.5 µg/mL
same,MIC (μg/mL) A. hydrophila,[2]; [14],12.5 µg/mL
same,MIC (μg/mL) P. vulgaris,[3]; [15],12.5 µg/mL
same,MIC (μg/mL) P. aeruginosa,[4]; [16],25 µg/mL
same,MIC (μg/mL) E. coli BL21,[5]; [17],12.5 µg/mL
same,MIC (μg/mL) P. mirabilis,[6]; [18],25 µg/mL
same,MIC (μg/mL) M. catarrhalis,[7]; [19],50 µg/mL
same,MIC (μg/mL) C. diversus,[8]; [20],25 µg/mL
same,MIC,[9],25 µg/mL
same,MIC (μg/mL) S. marcescens,[10]; [21],50 µg/mL
same,MIC (μg/mL) E. cloacae,[11]; [22],25 µg/mL
PRT1196 (DVDLCEPSPCRNGARCYNLEGDYYCACPDDFGGKNCS; listed as Homo sapiens),MIC against K. pneumonia,[1]; [13],25 µg/mL
same,MIC against A. hydrophila,[2]; [14],25 µg/mL
same,MIC against P. vulgaris,[3]; [15],25 µg/mL
same,MIC against P. aeruginosa,[4]; [16],12.5 µg/mL
same,MIC against E. coli BL21,[5]; [17],50 µg/mL
same,MIC against P. mirabilis,[6]; [18],12.5 µg/mL
same,MIC against M. catarrhalis,[7]; [19],25 µg/mL
same,MIC against C. diversus,[8]; [20],50 µg/mL
same,MIC,[9],12.5 µg/mL
same,MIC against S. marcescens,[10]; [21],50 µg/mL
same,MIC against E. cloacae,[11]; [22],25 µg/mL
